In US20250122219A1 (priority 2023, published 2025) one finds CC50 data, which are given here for 19 molecules.

Molecules are shown by their SMILES. Some results are limits rather than exact numbers.

This data set is described as follows: Cytotoxicity assay in MT-4 cells. In kind it is cell-based. The settings on record: human; uninfected MT-4 cells, 5 days incubation, Cell Titer Glo; read-out: MT4 CC50. The protocol:
Compounds were tested in a high-throughput 384-well assay format for their ability to inhibit the replication of HIV-1 (IIIB) in MT-4 cells. Compounds were serially diluted (1.3) in DMSO on 384-well polypropylene plates and further diluted 200-fold into complete RPMI media (10% FBS, 1% P/S) using the Biotek Micro Flow and Labcyte ECHO acoustic dispenser. Each plate contained up to 8 test compounds, with negative (No Drug Control) and 5 μM AZT positive controls. MT-4 cells were pre-infected with 10 μL of either RPMI (mock-infected) or a fresh 1:250 dilution of HIV-1 IIIB concentrated virus stock. Infected and uninfected MT-4 cells were further diluted in complete RPMI media and added to each plate using a Micro Flow dispenser. After 5 days incubation in a humidified and temperature controlled incubator (37° C.), Cell Titer Glo (Promega) was added to the assay plates and chemiluminescence read using an Envision plate-reader.
Assays were performed as above except uninfected MT-4 cells were added to each well containing test compound. In addition, […] puromycin was added to the last column of each assay plate to assess a base level of cytotoxicity.
A general note: In ATP-based viability assays light output follows the ATP content of the culture.

The term CC50 denotes the concentration giving 50% cytotoxicity. As to `COC1=NO[C@@]2(CC[C@H](C)N3C[C@H]2n2cc(C(=O)NCc4ccc(F)cc4F)c(=O)c(OC(=O)C(C)C)c2C3=O)C1` [Example 48, (3′S,5S,7′R)-10′-((2,4-difluorobenzyl)carbamoyl)-3-methoxy-3′-methyl-1′,11′-dioxo-1′,4′,5′,11′-tetrahydro-3′H,4H,7′H-spiro[isoxazole-5,6′-[2,7]methanopyrido[1,2-a][1,4]diazonin]-12′-yl isobutyrate], the CC50 at 5 days is 22.4 µM.
Regarding `CC1=NO[C@@]2(CC[C@H](C)N3C[C@H]2n2cc(C(=O)NCc4ccc(F)cc4F)c(=O)c(OC(=O)C(C)C)c2C3=O)C1` [Example 49, (3′S,5S,7′R)-10′-((2,4-difluorobenzyl)carbamoyl)-3,3′-dimethyl-1′,11′-dioxo-1′,4′,5′,11′-tetrahydro-3′H,4H,7′H-spiro[isoxazole-5,6′-[2,7]methanopyrido[1,2-a][1,4]diazonin]-12′-yl isobutyrate], the CC50 at 5 days was determined as 15.1 µM.
Regarding `CCC(C)C(=O)Oc1c2n(cc(C(=O)NCc3ccc(F)cc3F)c1=O)[C@@H]1CN(C2=O)[C@@H](C)CC[C@]12CC(OC)=NO2` (stereo partly drawn) [Example 50, (3′S,5S,7′R)-10′-((2,4-difluorobenzyl)carbamoyl)-3-methoxy-3′-methyl-1′,11′-dioxo-1′,4′,5′,11′-tetrahydro-3′H,4H,7′H-spiro[isoxazole-5,6′-[2,7]methanopyrido[1,2-a][1,4]diazonin]-12′-yl 2-methylbutanoate], the CC50 at 5 days worked out at 21.7 µM.
On to `CCC(C)C(=O)Oc1c2n(cc(C(=O)NCc3ccc(F)cc3F)c1=O)[C@@H]1CN(C2=O)[C@@H](C)CC[C@]12CC(C)=NO2` (stereo partly drawn) [Example 51, (3′S,5S,7′R)-10′-((2,4-difluorobenzyl)carbamoyl)-3,3′-dimethyl-1′,11′-dioxo-1′,4′,5′,11′-tetrahydro-3′H,4H,7′H-spiro[isoxazole-5,6′-[2,7]methanopyrido[1,2-a][1,4]diazonin]-12′-yl 2-methylbutanoate], for which the CC50 at 5 days worked out at 20 µM.
The figure for `CC1=NO[C@@]2(CC[C@H](C)N3C[C@H]2n2cc(C(=O)NCc4ccc(F)cc4F)c(=O)c(OC(=O)CCCC(=O)O)c2C3=O)C1` [Example 72, 5-(((3′S,5S,7′R)-10′-((2,4-difluorobenzyl)carbamoyl)-3,3′-dimethyl-1′,11′-dioxo-1′,4′,5′,11′-tetrahydro-3′H,4H,7′H-spiro[isoxazole-5,6′-[2,7]methanopyrido[1,2-a][1,4]diazonin]-12′-yl)oxy)-5-oxopentanoic acid] is 10.8 µM.
As for `COC1=NO[C@@]2(CC[C@H](C)N3C[C@H]2n2cc(C(=O)NCc4ccc(F)cc4F)c(=O)c(OC(=O)CCCCCC(=O)O)c2C3=O)C1` [Example 74, 7-(((3′S,5S,7′R)-10′-((2,4-difluorobenzyl)carbamoyl)-3-methoxy-3′-methyl-1′,11′-dioxo-1′,4′,5′,11′-tetrahydro-3′H,4H,7′H-spiro[isoxazole-5,6′-[2,7]methanopyrido[1,2-a][1,4]diazonin]-12′-yl)oxy)-7-oxoheptanoic acid], the 50% cytotoxic concentration (CC50) at 5 days is 26.3 µM.
As to `COC(=O)N[C@@H](C)C(=O)Oc1c2n(cc(C(=O)NCc3ccc(F)cc3F)c1=O)[C@@H]1CN(C2=O)[C@@H](C)CC[C@]12CC(OC)=NO2` [Example 78], the CC50 at 5 days was 16.2 µM.
Consider `COC(=O)N[C@@H](C)C(=O)Oc1c2n(cc(C(=O)NCc3ccc(F)cc3F)c1=O)[C@@H]1CN(C2=O)[C@@H](C)CC[C@]12CC(C)=NO2` [Example 79], for which the CC50 at 5 days was found to be 19.5 µM.
To `COC1=NO[C@@]2(CC[C@H](C)N3C[C@H]2n2cc(C(=O)NCc4ccc(F)cc4F)c(=O)c(OCOC(=O)C(C)C)c2C3=O)C1` [Example 108, (((3′S,5S,7′R)-10′-((2,4-difluorobenzyl)carbamoyl)-3-methoxy-3′-methyl-1′,11′-dioxo-1′,4′,5′,11′-tetrahydro-3′H,4H,7′H-spiro[isoxazole-5,6′-[2,7]methanopyrido[1,2-a][1,4]diazonin]-12′-yl)oxy)methyl isobutyrate] belongs 21.7 µM; to `CC1=NO[C@@]2(CC[C@H](C)N3C[C@H]2n2cc(C(=O)NCc4ccc(F)cc4F)c(=O)c(OCOC(=O)C(C)C)c2C3=O)C1` [Example 109, (((3′S,5S,7′R)-10′-((2,4-difluorobenzyl)carbamoyl)-3,3′-dimethyl-1′,11′-dioxo-1′,4′,5′,11′-tetrahydro-3′H,4H,7′H-spiro[isoxazole-5,6′-[2,7]methanopyrido[1,2-a][1,4]diazonin]-12′-yl)oxy)methyl isobutyrate], 15.5 µM.
Consider `COC(=O)Oc1c2n(cc(C(=O)NCc3ccc(F)cc3F)c1=O)[C@@H]1CN(C2=O)[C@@H](C)CC[C@]12CC(OC)=NO2` [Example 122, (03'S,5S,7′R)-10′-((2,4-difluorobenzyl)carbamoyl)-3-methoxy-3′-methyl-1′,11′-dioxo-1′,4′,5′,11′-tetrahydro-3′H,4H,7′H-spiro[isoxazole-5,6′-[2,7]methanopyrido[1,2-a][1,4]diazonin]-12′-yl methyl carbonate], for which the cytotoxic concentration (CC50) at 5 days was 19.8 µM.
The figure for `CCCOC(=O)Oc1c2n(cc(C(=O)NCc3ccc(F)cc3F)c1=O)[C@@H]1CN(C2=O)[C@@H](C)CC[C@]12CC(C)=NO2` [Example 125, (3′S,5S,7′R)-10′-((2,4-difluorobenzyl)carbamoyl)-3,3′-dimethyl-1′,11′-dioxo-1′,4′,5′,11′-tetrahydro-3′H,4H,7′H-spiro[isoxazole-5,6′-[2,7]methanopyrido[1,2-a][1,4]diazonin]-12′-yl propyl carbonate] is 18.5 µM.
Consider `CCCOC(=O)Oc1c2n(cc(C(=O)NCc3ccc(F)cc3F)c1=O)[C@@H]1CN(C2=O)[C@@H](C)CC[C@]12CC(OC)=NO2` [Example 126, (3′S,5S,7′R)-10′-((2,4-difluorobenzyl)carbamoyl)-3-methoxy-3′-methyl-1′,11′-dioxo-1′,4′,5′,11′-tetrahydro-3′H,4H,7′H-spiro[isoxazole-5,6′-[2,7]methanopyrido[1,2-a][1,4]diazonin]-12′-yl propyl carbonate], for which the CC50 at 5 days came out at 21.9 µM.
For the molecule `CC1=NO[C@@]2(CC[C@H](C)N3C[C@H]2n2cc(C(=O)NCc4ccc(F)cc4F)c(=O)c(OC(=O)OCCCCCCC(C)C)c2C3=O)C1` [Example 158, (3′S,5S,7′R)-10′-((2,4-difluorobenzyl)carbamoyl)-3,3′-dimethyl-1′,11′-dioxo-1′,4′,5′,11′-tetrahydro-3′H,4H,7′H-spiro[isoxazole-5,6′-[2,7]methanopyrido[1,2-a][1,4]diazonin]-12′-yl (7-methyloctyl) carbonate], the CC50 at 5 days is 16.8 µM.
As for `COC1=NO[C@@]2(CC[C@H](C)N3C[C@H]2n2cc(C(=O)NCc4ccc(F)cc4F)c(=O)c(OC(=O)OCCCCCCC(C)C)c2C3=O)C1` [Example 159, (3′S,5S,7′R)-10′-((2,4-difluorobenzyl)carbamoyl)-3-methoxy-3′-methyl-1′,11′-dioxo-1′,4′,5′,11′-tetrahydro-3′H,4H,7′H-spiro[isoxazole-5,6′-[2,7]methanopyrido[1,2-a][1,4]diazonin]-12′-yl (7-methyloctyl) carbonate], the CC50 at 5 days stood at 35.9 µM.
To `CCCCCCCCCCCCCCOC(=O)OCOc1c2n(cc(C(=O)NCc3ccc(F)cc3F)c1=O)[C@@H]1CN(C2=O)[C@@H](C)CC[C@]12CC(C)=NO2` [Example 192, (((3′S,5S,7′R)-10′-((2,4-difluorobenzyl)carbamoyl)-3,3′-dimethyl-1′,11′-dioxo-1′,4′,5′,11′-tetrahydro-3′H,4H,7′H-spiro[isoxazole-5,6′-[2,7]methanopyrido[1,2-a][1,4]diazonin]-12′-yl)oxy)methyl tetradecyl carbonate] belongs not below 50 µM; to `CCCCCCCCCCCCCCOC(=O)OCOc1c2n(cc(C(=O)NCc3ccc(F)cc3F)c1=O)[C@@H]1CN(C2=O)[C@@H](C)CC[C@]12CC(OC)=NO2` [Example 193, (((3′S,5S,7′R)-10′-((2,4-difluorobenzyl)carbamoyl)-3-methoxy-3′-methyl-1′,11′-dioxo-1′,4′,5′,11′-tetrahydro-3′H,4H,7′H-spiro[isoxazole-5,6′-[2,7]methanopyrido[1,2-a][1,4]diazonin]-12′-yl)oxy)methyl tetradecyl carbonate], not below 50 µM.
The figure for `CC1=NO[C@@]2(CC[C@H](C)N3C[C@H]2n2cc(C(=O)NCc4ccc(F)cc4F)c(=O)c(OCOC(=O)OCCCCCCC(C)C)c2C3=O)C1` [Example 209, (((3′S,5S,7′R)-10′-((2,4-difluorobenzyl)carbamoyl)-3,3′-dimethyl-1′,11′-dioxo-1′,4′,5′,11′-tetrahydro-3′H,4H,7′H-spiro[isoxazole-5,6′-[2,7]methanopyrido[1,2-a][1,4]diazonin]-12′-yl)oxy)methyl (7-methyloctyl) carbonate] is not below 50 µM; for `COC1=NO[C@@]2(CC[C@H](C)N3C[C@H]2n2cc(C(=O)NCc4ccc(F)cc4F)c(=O)c(OCOC(=O)OCCCCCCC(C)C)c2C3=O)C1` [Example 210, (((3′S,5S,7′R)-10′-((2,4-difluorobenzyl)carbamoyl)-3-methoxy-3′-methyl-1′,11′-dioxo-1′,4′,5′,11′-tetrahydro-3′H,4H,7′H-spiro[isoxazole-5,6′-[2,7]methanopyrido[1,2-a][1,4]diazonin]-12′-yl)oxy)methyl (7-methyloctyl) carbonate] it is not below 50 µM.
